Assay results from ChEMBL document CHEMBL3046766, “Design, synthesis, and insecticidal evaluation of new benzoylureas containing isoxazoline and isoxazole group” (2011).
In brackets after ≈: the same amount, converted by molar mass.

Assays:
Assay type in all cases: functional
Plutella xylostella [1] = experiment: Insecticidal activity against Plutella xylostella (diamondback moth) […] larvae infested on compound pre-treated fresh cabbage leaves assessed as larvicidal activity measured 3 days post treatment
Mythimna separata [2] = experiment: Insecticidal activity against Mythimna separata (Oriental armyworm) fourth-instar larvae infested compound pre-treated corn leaves assessed as larvicidal activity at 0.5 mg/L measured 4 days post treatment
Mythimna separata [3] = experiment: Insecticidal activity against Mythimna separata (Oriental armyworm) fourth-instar larvae infested compound pre-treated corn leaves assessed as larvicidal activity at 0.25 mg/L measured 4 days post treatment
Mythimna separata [4] = experiment: Insecticidal activity against Mythimna separata (Oriental armyworm) fourth-instar larvae infested compound pre-treated corn leaves assessed as larvicidal activity at 1 mg/L measured 4 days post treatment
Culex pipiens pallens [5] = experiment: Insecticidal activity against Culex pipiens pallens (mosquito) fourth-instar larvae assessed as larvicidal activity at 0.001 mg/L measured 8 days post treatment; conditions: 192 h
Culex pipiens pallens [6] = experiment: Insecticidal activity against Culex pipiens pallens (mosquito) fourth-instar larvae assessed as larvicidal activity at 0.005 mg/L measured 8 days post treatment; conditions: 192 h
Culex pipiens pallens [7] = experiment: Insecticidal activity against Culex pipiens pallens (mosquito) fourth-instar larvae assessed as larvicidal activity at 0.0005 mg/L measured 8 days post treatment; conditions: 192 h
Culex pipiens pallens [8] = experiment: Insecticidal activity against Culex pipiens pallens (mosquito) fourth-instar larvae assessed as larvicidal activity at 2 mg/L measured 8 days post treatment; conditions: 192 h
Mythimna separata [9] = experiment: Insecticidal activity against Mythimna separata (Oriental armyworm) fourth-instar larvae infested compound pre-treated corn leaves assessed as larvicidal activity at 50 mg/L measured 4 days post treatment
Plutella xylostella [10] = experiment: Insecticidal activity against Plutella xylostella (diamondback moth) […] larvae infested on compound pre-treated fresh cabbage leaves assessed as larvicidal activity at 200 mg/L measured 3 days post treatment
Mythimna separata [11] = experiment: Insecticidal activity against Mythimna separata (Oriental armyworm) fourth-instar larvae infested compound pre-treated corn leaves assessed as larvicidal activity at 100 mg/L measured 4 days post treatment
Culex pipiens pallens [12] = experiment: Insecticidal activity against Culex pipiens pallens (mosquito) fourth-instar larvae assessed as larvicidal activity at 0.25 mg/L measured 8 days post treatment; conditions: 192 h
Mythimna separata [13] = experiment: Insecticidal activity against Mythimna separata (Oriental armyworm) fourth-instar larvae infested compound pre-treated corn leaves assessed as larvicidal activity at 200 mg/L measured 4 days post treatment
Plutella xylostella [14] = experiment: Insecticidal activity against Plutella xylostella (diamondback moth) […] larvae infested on compound pre-treated fresh cabbage leaves assessed as larvicidal activity at 100 mg/L measured 3 days post treatment
Plutella xylostella [15] = experiment: Insecticidal activity against Plutella xylostella (diamondback moth) […] larvae infested on compound pre-treated fresh cabbage leaves assessed as larvicidal activity at 20 mg/L measured 3 days post treatment
Culex pipiens pallens [16] = experiment: Insecticidal activity against Culex pipiens pallens (mosquito) fourth-instar larvae assessed as larvicidal activity at 0.5 mg/L measured 8 days post treatment; conditions: 192 h
Culex pipiens pallens [17] = experiment: Insecticidal activity against Culex pipiens pallens (mosquito) fourth-instar larvae assessed as larvicidal activity at 0.1 mg/L measured 8 days post treatment; conditions: 192 h
Culex pipiens pallens [18] = experiment: Insecticidal activity against Culex pipiens pallens (mosquito) fourth-instar larvae assessed as larvicidal activity at 0.05 mg/L measured 8 days post treatment; conditions: 192 h
Mythimna separata [19] = experiment: Insecticidal activity against Mythimna separata (Oriental armyworm) fourth-instar larvae infested compound pre-treated corn leaves assessed as larvicidal activity at 2.5 mg/L measured 4 days post treatment
Mythimna separata [20] = experiment: Insecticidal activity against Mythimna separata (Oriental armyworm) fourth-instar larvae infested compound pre-treated corn leaves assessed as larvicidal activity at 10 mg/L measured 4 days post treatment
Mythimna separata [21] = experiment: Insecticidal activity against Mythimna separata (Oriental armyworm) fourth-instar larvae infested compound pre-treated corn leaves assessed as larvicidal activity at 5 mg/L measured 4 days post treatment
Culex pipiens pallens [22] = experiment: Insecticidal activity against Culex pipiens pallens (mosquito) fourth-instar larvae assessed as larvicidal activity at 0.025 mg/L measured 8 days post treatment; conditions: 192 h
Culex pipiens pallens [23] = experiment: Insecticidal activity against Culex pipiens pallens (mosquito) fourth-instar larvae assessed as larvicidal activity at 1 mg/L measured 8 days post treatment; conditions: 192 h
Plutella xylostella [24] = experiment: Insecticidal activity against Plutella xylostella (diamondback moth) […] larvae infested on compound pre-treated fresh cabbage leaves assessed as larvicidal activity at 2 mg/L measured 3 days post treatment
Plutella xylostella [25] = experiment: Insecticidal activity against Plutella xylostella (diamondback moth) […] larvae infested on compound pre-treated fresh cabbage leaves assessed as larvicidal activity at 0.02 mg/L measured 3 days post treatment
Plutella xylostella [26] = experiment: Insecticidal activity against Plutella xylostella (diamondback moth) […] larvae infested on compound pre-treated fresh cabbage leaves assessed as larvicidal activity at 0.2 mg/L measured 3 days post treatment
Plutella xylostella [27] = experiment: Insecticidal activity against Plutella xylostella (diamondback moth) […] larvae infested on compound pre-treated fresh cabbage leaves assessed as larvicidal activity at 5 mg/L measured 3 days post treatment
Mythimna separata [28] = experiment: Insecticidal activity against Mythimna separata (Oriental armyworm) fourth-instar larvae infested compound pre-treated corn leaves assessed as larvicidal activity at 25 mg/L measured 4 days post treatment

Row | SMILES | mortality at 2 µg/mL (Culex pipiens pallens [8]) [%] | mortality at 50 µg/mL (Mythimna separata [9]) [%] | mortality at 200 µg/mL (Plutella xylostella [10]) [%] | mortality at 100 µg/mL (Mythimna separata [11]) [%] | mortality at 20 µg/mL (Plutella xylostella [15]) [%] | other results
1 | CC(C)(C)O/N=C/c1ccc(NC(=O)NC(=O)c2c(F)cccc2F)cc1 | – | – | – | – | – | LC50 (Plutella xylostella [1]): 30.8 µg/mL (≈ 82 µM); mortality at 0.5 µg/mL (Mythimna separata [2]): 85%; mortality at 0.25 µg/mL (Mythimna separata [3]): 0%; mortality at 1 µg/mL (Mythimna separata [4]): 100%; mortality at 0.001 µg/mL (Culex pipiens pallens [5]): 70%; mortality at 0.005 µg/mL (Culex pipiens pallens [6]): 100%; mortality at 0.0005 µg/mL (Culex pipiens pallens [7]): 20%
2 | O=C(NC(=O)c1c(F)cccc1F)Nc1ccc(C2=NOC(COCC(F)(F)F)C2)cc1 (stereo not given) | 40 | 60 | 0 | 100 | – | –
3 | O=C(NC(=O)c1c(F)cccc1F)Nc1ccc(C2=NOC3CC23)cc1 (stereo not given) | 60 | 0 | 10 | 100 | – | –
4 | CC1(c2ccccc2)CC(c2ccc(NC(=O)NC(=O)c3c(F)cccc3F)cc2)=NO1 (stereo not given) | – | 60 | 100 | 100 | 30 | mortality at 0.25 µg/mL (Culex pipiens pallens [12]): 100%; mortality at 200 µg/mL (Mythimna separata [13]): 100%; mortality at 100 µg/mL (Plutella xylostella [14]): 80%; mortality at 0.5 µg/mL (Culex pipiens pallens [16]): 100%; mortality at 0.1 µg/mL (Culex pipiens pallens [17]): 80%
5 | CCCCOCc1cc(-c2ccc(NC(=O)NC(=O)c3c(F)cccc3F)cc2)no1 | 60 | 80 | 0 | 100 | – | mortality at 200 µg/mL (Mythimna separata [13]): 100%
6 | CCCCC1CC(c2ccc(NC(=O)NC(=O)c3c(F)cccc3F)cc2)=NO1 (stereo not given) | 30 | 0 | 80 | 100 | 20 | mortality at 200 µg/mL (Mythimna separata [13]): 100%; mortality at 100 µg/mL (Plutella xylostella [14]): 70%
7 | O=C(NC(=O)c1c(F)cccc1F)Nc1ccc(C2=NOC3CCCC23)cc1 (stereo not given) | 50 | 0 | 0 | 100 | – | –
8 | CCCCCCCC1CC(c2ccc(NC(=O)NC(=O)c3c(F)cccc3F)cc2)=NO1 (stereo not given) | 50 | 60 | 0 | 100 | – | –
9 | CCCCCCCCc1cc(-c2ccc(NC(=O)NC(=O)c3c(F)cccc3F)cc2)no1 | 40 | 20 | 10 | 100 | – | mortality at 200 µg/mL (Mythimna separata [13]): 100%
10 | O=C(NC(=O)c1c(F)cccc1F)Nc1ccc(CO/N=C(/c2ccc(Cl)cc2)C2CC2)cc1 [FLUCYCLOXURON] | – | – | – | – | – | mortality at 0.05 µg/mL (Culex pipiens pallens [18]): 100%; mortality at 1 µg/mL (Mythimna separata [4]): 10%; mortality at 2.5 µg/mL (Mythimna separata [19]): 50%; mortality at 10 µg/mL (Mythimna separata [20]): 95%; mortality at 5 µg/mL (Mythimna separata [21]): 90%; mortality at 0.1 µg/mL (Culex pipiens pallens [17]): 100%; mortality at 0.025 µg/mL (Culex pipiens pallens [22]): 15%
11 | O=C(NC(=O)c1c(F)cccc1F)Nc1ccc(C2=NOC(c3ccccc3)C2)cc1 (stereo not given) | – | 0 | 50 | 100 | 30 | mortality at 0.25 µg/mL (Culex pipiens pallens [12]): 100%; mortality at 0.1 µg/mL (Culex pipiens pallens [17]): 90%
12 | CCCCOCC1CC(c2ccc(NC(=O)NC(=O)c3c(F)cccc3F)cc2)=NO1 (stereo not given) | 100 | 40 | 10 | 100 | – | mortality at 1 µg/mL (Culex pipiens pallens [23]): 80%
13 | CC(C)(C)c1cc(-c2ccc(NC(=O)NC(=O)c3c(F)cccc3F)cc2)no1 | 40 | – | – | – | – | mortality at 2 µg/mL (Plutella xylostella [24]): 100%; mortality at 0.02 µg/mL (Plutella xylostella [25]): 30%; mortality at 2.5 µg/mL (Mythimna separata [19]): 0%; mortality at 10 µg/mL (Mythimna separata [20]): 100%; mortality at 0.2 µg/mL (Plutella xylostella [26]): 60%; mortality at 5 µg/mL (Mythimna separata [21]): 100%; mortality at 5 µg/mL (Plutella xylostella [27]): 100%
14 | O=C(NC(=O)c1c(F)cccc1F)Nc1ccc(C2=NOC3(CCCCC3)C2)cc1 | 70 | 40 | 20 | 100 | – | –
15 | CC(C)(C)C1=NOC(c2ccc(NC(=O)NC(=O)c3c(F)cccc3F)cc2)C1 (stereo not given) | 100 | 100 | 100 | – | 100 | mortality at 1 µg/mL (Culex pipiens pallens [23]): 80%; mortality at 25 µg/mL (Mythimna separata [28]): 100%; mortality at 10 µg/mL (Mythimna separata [20]): 40%; mortality at 5 µg/mL (Plutella xylostella [27]): 30%
16 | O=C(NC(=O)c1c(F)cccc1F)Nc1ccc(C2CC(c3ccc(F)cc3)=NO2)cc1 (stereo not given) | 100 | 100 | 100 | – | 70 | mortality at 1 µg/mL (Culex pipiens pallens [23]): 100%; mortality at 25 µg/mL (Mythimna separata [28]): 100%; mortality at 10 µg/mL (Mythimna separata [20]): 60%; mortality at 0.5 µg/mL (Culex pipiens pallens [16]): 70%; mortality at 5 µg/mL (Plutella xylostella [27]): 0%
17 | N#CC1CC(c2ccc(NC(=O)NC(=O)c3c(F)cccc3F)cc2)=NO1 (stereo not given) | – | 0 | 0 | 100 | – | mortality at 0.25 µg/mL (Culex pipiens pallens [12]): 100%; mortality at 0.1 µg/mL (Culex pipiens pallens [17]): 70%
18 | COC(=O)C1CC(c2ccc(NC(=O)NC(=O)c3c(F)cccc3F)cc2)=NO1 (stereo not given) | 60 | 0 | 10 | 100 | – | –
19 | CC(C)(C)C1CC(c2ccc(NC(=O)NC(=O)c3c(F)cccc3F)cc2)=NO1 (stereo not given) | – | 100 | – | – | – | mortality at 2 µg/mL (Plutella xylostella [24]): 80%; mortality at 0.02 µg/mL (Plutella xylostella [25]): 10%; mortality at 25 µg/mL (Mythimna separata [28]): 100%; mortality at 0.25 µg/mL (Culex pipiens pallens [12]): 100%; mortality at 10 µg/mL (Mythimna separata [20]): 100%; mortality at 0.2 µg/mL (Plutella xylostella [26]): 70%; mortality at 5 µg/mL (Mythimna separata [21]): 40%; mortality at 0.1 µg/mL (Culex pipiens pallens [17]): 50%; mortality at 5 µg/mL (Plutella xylostella [27]): 100%
20 | O=C(NC(=O)c1c(F)cccc1F)Nc1ccc(C2=NOC(CBr)C2)cc1 (stereo not given) | 60 | 20 | 40 | 100 | 0 | –
21 | O=C(NC(=O)c1c(F)cccc1F)Nc1ccc(C2=NOC3(CCCC3)C2)cc1 | 80 | 60 | 10 | 100 | – | –
22 | Cc1cc(-c2ccc(NC(=O)NC(=O)c3c(F)cccc3F)cc2)no1 | 20 | 20 | 10 | 100 | – | mortality at 200 µg/mL (Mythimna separata [13]): 100%
23 | O=C(NC(=O)c1c(F)cccc1F)Nc1ccc(-c2cc(COCC(F)(F)F)on2)cc1 | 40 | 20 | 30 | 100 | 0 | mortality at 200 µg/mL (Mythimna separata [13]): 100%
24 | O=C(NC(=O)c1c(F)cccc1F)Nc1ccc(C2=NOC(c3ccc(F)cc3)C2)cc1 (stereo not given) | 40 | – | – | – | 100 | mortality at 2 µg/mL (Plutella xylostella [24]): 30%; mortality at 200 µg/mL (Mythimna separata [13]): 10%; mortality at 5 µg/mL (Plutella xylostella [27]): 80%
